Data from US4861788A, “Antibacterial 1-normon-2-yl-heterocyclic compounds” (Beecham Group plc, priority 1983, dated 1989).
In brackets after ≈: the same amount, converted by molar mass. Where two headings read alike, the source gives them in different places.

How the values were obtained:
[1] = system: Strep. dysgalactiae SPD1; assay: MIC against veterinary bacteria in vitro (Diagnostic Sensitivity Test Agar); conditions: Streptococcus dysgalactiae, SPD1, 18 h
Procedure: (§2) The activity of the normonyl derivatives of the Examples against various veterinarily important bacteria, was assayed in vitro using two-fold serial dilutions in Diagnostic Sensitivity Test Agar inoculated with 10^4 organisms.

[2] = system: M. hyorhinis ATCC 25021; assay: MIC against Mycoplasma in vitro (Friis broth with agarose); type: cell-based; conditions: Mesomycoplasma hyorhinis, ATCC25021, 144 h; M. hyorhinis ATCC 25021; 6 days at 37° C; read-out: MIC
[3] = system: Bord. bronchiseptica B09; assay: MIC against veterinary bacteria in vitro (Diagnostic Sensitivity Test Agar); conditions: Bordetella bronchiseptica, B09, 18 h
Procedure: as §2

[4] = system: M. hyopneumoniae TAM 6N; assay: MIC against Mycoplasma in vitro (Friis broth with agarose); type: cell-based; conditions: Mesomycoplasma hyopneumoniae, TAM6N, 144 h
[5] = system: Staph. aureus 152 (pen. sens); assay: MIC against veterinary bacteria in vitro (Diagnostic Sensitivity Test Agar); conditions: Staphylococcus aureus, 18 h
Procedure: as §2

[6] = system: M. bovis NCTC 10131; assay: microbe, parasite or virus in culture; type: cell-based; conditions: NCTC10131, 144 h
[7] = system: M. gallisepticum S6; assay: MIC against Mycoplasma in vitro (Friis broth with agarose); type: cell-based; conditions: Mycoplasmoides gallisepticum
[8] = system: Staph. aureus Oxford; assay: MIC against human bacteria in vitro (nutrient agar, chocolated horse blood); type: cell-based; conditions: Staphylococcus aureus; human; Staph. aureus Oxford; 18 hours at 37° C; read-out: MIC
Procedure: (§1) The activity of the normonyl derivaties of the Examples against various bacteria which are important in diseases of humans, was assayed in vitro using serial dilutions in nurient agar with 5% chocolated horse blood.

[9] = system: Bacillus subtilis 6633; assay: as above; type: cell-based; conditions: human; Bacillus subtilis 6633; 18 hours at 37° C; read-out: MIC
Procedure: as §1

[10] = system: Staph. aureus W2827; assay: as above; type: cell-based; conditions: Staphylococcus aureus; human; Staph. aureus W2827; 18 hours at 37° C; read-out: MIC
Procedure: as §1

[11] = system: Pasteurella multocida 1633; assay: as above; type: cell-based; conditions: human; Pasteurella multocida 1633; 18 hours at 37° C; read-out: MIC
Procedure: as §1

[12] = system: Haemophilus influenzae Wy21; assay: as above; type: cell-based
Procedure: as §1

[13] = system: Strep. agalactiae 2788-B; assay: as above; type: cell-based; conditions: Streptococcus agalactiae; human; Strep. agalactiae 2788-B; 18 hours at 37° C; read-out: MIC
Procedure: as §1

[14] = system: Strep. pyogenes R80/421-A; assay: as above; type: cell-based; conditions: Streptococcus pyogenes; human; Strep. pyogenes R80/421-A; 18 hours at 37° C; read-out: MIC
Procedure: as §1

[15] = system: E. coli ESS; assay: as above; type: cell-based; conditions: Escherichia coli; human; E. coli ESS; 18 hours at 37° C; read-out: MIC
Procedure: as §1

[16] = system: Corynebacterium xerosis 9755; assay: as above; type: cell-based; conditions: human; Corynebacterium xerosis 9755; 18 hours at 37° C; read-out: MIC
Procedure: as §1

[17] = system: Ps. aeruginosa NCTC 10662; assay: as above; type: cell-based; conditions: Pseudomonas aeruginosa, NCTC10662; human; Ps. aeruginosa NCTC 10662; 18 hours at 37° C; read-out: MIC
Procedure: as §1

[18] = system: Staph. aureus Russell; assay: as above; type: cell-based; conditions: Staphylococcus aureus; human; Staph. aureus Russell; 18 hours at 37° C; read-out: MIC
Procedure: as §1

[19] = system: K. aerogenes A; assay: as above; type: cell-based; conditions: Klebsiella aerogenes; human; K. aerogenes A; 18 hours at 37° C; read-out: MIC
Procedure: as §1

[20] = system: Strep. spp. 64/848-C; assay: as above; type: cell-based; conditions: human; Strep. spp. 64/848-C; 18 hours at 37° C; read-out: MIC
Procedure: as §1

[21] = system: Strep. faecalis I; assay: as above; type: cell-based; conditions: Enterococcus faecalis; human; Strep. faecalis I; 18 hours at 37° C; read-out: MIC
Procedure: as §1

[22] = system: E. coli NCTC 10418; assay: as above; type: cell-based; conditions: Escherichia coli, NCTC10418; human; E. coli NCTC 10418; 18 hours at 37° C; read-out: MIC
Procedure: as §1

[23] = system: P. mirabilis 889; assay: as above; type: cell-based; conditions: Proteus mirabilis; human; P. mirabilis 889; 18 hours at 37° C; read-out: MIC
Procedure: as §1

[24] = system: Strep. suis (group D) SPS11; assay: MIC against veterinary bacteria in vitro (Diagnostic Sensitivity Test Agar); conditions: Streptococcus suis, 18 h
Procedure: as §2

[25] = system: M. hyopneumoniae Str. 11; assay: MIC against Mycoplasma in vitro (Friis broth with agarose); type: cell-based; conditions: Mesomycoplasma hyopneumoniae, 144 h; M. hyopneumoniae Str. 11; 6 days at 37° C; read-out: MIC
[26] = system: Erysipelothrix rhusiopathiae NCTC 8163; assay: MIC against veterinary bacteria in vitro (Diagnostic Sensitivity Test Agar); conditions: NCTC8163, 18 h
Procedure: as §2

[27] = system: Staph. aureus B4 (pen. resistant); assay: as above; conditions: Staphylococcus aureus, 18 h
Procedure: as §2

[28] = system: M. hyopneumoniae ATCC 25095; assay: MIC against Mycoplasma in vitro (Friis broth with agarose); type: cell-based; conditions: Mesomycoplasma hyopneumoniae, ATCC25095, 144 h; M. hyopneumoniae ATCC 25095; 6 days at 37° C; read-out: MIC
[29] = system: Past. haemolytica PA5; assay: MIC against veterinary bacteria in vitro (Diagnostic Sensitivity Test Agar); conditions: Mannheimia haemolytica, PA5, 18 h
Procedure: as §2

[30] = system: Strep. agalactiae SPA1; assay: as above; conditions: Streptococcus agalactiae, SPA1, 18 h
Procedure: as §2

[31] = system: M. bovigenitalium ATCC 14173; assay: MIC against Mycoplasma in vitro (Friis broth with agarose); type: cell-based; conditions: 144 h
[32] = system: M. hyopneumoniae MS 16; assay: as above; type: cell-based; conditions: Mesomycoplasma hyopneumoniae, MS16, 144 h; M. hyopneumoniae MS 16; 6 days at 37° C; read-out: MIC
[33] = system: Sarcina lutea 8340; assay: MIC against human bacteria in vitro (nutrient agar, chocolated horse blood); type: cell-based; conditions: Micrococcus luteus; human; Sarcina lutea 8340; 18 hours at 37° C; read-out: MIC
Procedure: as §1

[34] = 144 h, M. gallisepticum S6, 6 days at 37° C, read-out: MIC
[35] = Haemophilus influenzae, WY21, 18 h
[36] = M. bovigenitalium ATCC 14173, 6 days at 37° C, read-out: MIC
[37] = M. hyopneumoniae TAM 6N, 6 days at 37° C, read-out: MIC

With `CC(=Cc1nnc(-c2cccc([N+](=O)[O-])c2)o1)CC1OCC(CC2OC2C(C)C(C)O)C(O)C1O` (centres unmarked) [Example 2, 2-m-Nitrophenyl-5-(1-normon-2-yl)-1,3,4-oxadiazole A] the MIC [1] was 5 µg/mL (≈ 10.2 µM), the MIC [2] was 0.025 µg/mL (≈ 0.0511 µM) and the MIC [3] was 80 µg/mL (≈ 163 µM). It also gave an MIC [4] of 0.05 µg/mL (≈ 0.102 µM), an MIC [5] of 10 µg/mL (≈ 20.4 µM) and an MIC [6] of 0.025 µg/mL (≈ 0.0511 µM). For the same compound, the MIC [7, 34] was greater than 10 µg/mL, the MIC [8] was 16 µg/mL (≈ 32.7 µM) and the MIC [9] was 4 µg/mL (≈ 8.17 µM). For the same compound, the MIC [10] was 64 µg/mL (≈ 131 µM), the MIC [11] was 2 µg/mL (≈ 4.09 µM) and the MIC [12, 35] was 0.5 µg/mL (≈ 1.02 µM). It also gave an MIC [13] of 32 µg/mL (≈ 65.4 µM), an MIC [14] of 4 µg/mL (≈ 8.17 µM) and an MIC [15] of 4 µg/mL (≈ 8.17 µM). The MIC [16] was greater than 128 µg/mL, the MIC [17] was greater than 128 µg/mL and the MIC [18] was 64 µg/mL (≈ 131 µM). For the same compound, the MIC [19] was greater than 128 µg/mL, the MIC [20] was 32 µg/mL (≈ 65.4 µM) and the MIC [21] was greater than 128 µg/mL. For the same compound, the MIC [22] was greater than 128 µg/mL, the MIC [23] was greater than 128 µg/mL and the MIC [24] was greater than 80 µg/mL. For the same compound, the MIC [25] was 0.025 µg/mL (≈ 0.0511 µM), the MIC [26] was 40 µg/mL (≈ 81.7 µM) and the MIC [27] was 5 µg/mL (≈ 10.2 µM). For the same compound, the MIC [28] was 0.025 µg/mL (≈ 0.0511 µM), the MIC [29] was 10 µg/mL (≈ 20.4 µM) and the MIC [30] was 10 µg/mL (≈ 20.4 µM). For the same compound, the MIC [31, 36] was 0.025 µg/mL (≈ 0.0511 µM) and the MIC [32] was 0.025 µg/mL (≈ 0.0511 µM).
Compound `CC(=Cc1nnc(-c2ccncc2)o1)CC1OCC(CC2OC2C(C)C(C)O)C(O)C1O` (centres unmarked) [Example 7, 2-(1-Normon-2-yl)-5-(4-pyridyl)-1,3,4-oxadiazole A] has an MIC [1] of 10 µg/mL (≈ 22.4 µM), an MIC [2] of 0.5 µg/mL (≈ 1.12 µM) and an MIC [3] of 20 µg/mL (≈ 44.9 µM). The MIC [4, 37] was 2.5 µg/mL (≈ 5.61 µM), the MIC [5] was 10 µg/mL (≈ 22.4 µM) and the MIC [6] was 0.025 µg/mL (≈ 0.0561 µM). For the same compound, the MIC ([7]; S6, 144 h) was greater than 10 µg/mL, the MIC [8] was 2 µg/mL (≈ 4.49 µM) and the MIC [9] was 2 µg/mL (≈ 4.49 µM). It also gave an MIC [10] of 32 µg/mL (≈ 71.8 µM), an MIC [11] greater than 128 µg/mL and an MIC [12, 35] of 1 µg/mL (≈ 2.24 µM). It also gave an MIC [13] of 8 µg/mL (≈ 18 µM), an MIC [15] of 64 µg/mL (≈ 144 µM) and an MIC [17] greater than 128 µg/mL. For the same compound, the MIC [18] was 32 µg/mL (≈ 71.8 µM), the MIC [19] was 128 µg/mL (≈ 287 µM) and the MIC [20] was 8 µg/mL (≈ 18 µM). It also gave an MIC [21] greater than 128 µg/mL, an MIC [22] greater than 128 µg/mL and an MIC [33] greater than 128 µg/mL. For the same compound, the MIC [24] was greater than 80 µg/mL, the MIC [25] was 0.5 µg/mL (≈ 1.12 µM) and the MIC [26] was 80 µg/mL (≈ 180 µM). For the same compound, the MIC [27] was 10 µg/mL (≈ 22.4 µM), the MIC [29] was 20 µg/mL (≈ 44.9 µM) and the MIC [30] was 20 µg/mL (≈ 44.9 µM). For the same compound, the MIC [31] was 0.25 µg/mL (≈ 0.561 µM).
`CC(=Cc1nnc(-c2ccco2)o1)CC1OCC(CC2OC2C(C)C(C)O)C(O)C1O` (centres unmarked) [Example 8, 2-(2-Furyl)-5-(1-normon-2-yl)-1,3,4-oxadiazole A] was tested, and the MIC [1] was 40 µg/mL (≈ 92.1 µM), the MIC [2] was 2.5 µg/mL (≈ 5.75 µM) and the MIC [3] was 80 µg/mL (≈ 184 µM). For the same compound, the MIC [4, 37] was 10 µg/mL (≈ 23 µM), the MIC [5] was 40 µg/mL (≈ 92.1 µM) and the MIC [6] was 0.1 µg/mL (≈ 0.23 µM). The MIC [7, 34] was greater than 10 µg/mL, the MIC [8] was 4 µg/mL (≈ 9.21 µM) and the MIC [9] was 4 µg/mL (≈ 9.21 µM). It also gave an MIC [10] of 32 µg/mL (≈ 73.6 µM), an MIC [11] of 1 µg/mL (≈ 2.3 µM) and an MIC ([12]; human, Haemophilus influenzae Wy21, 18 hours at 37° C, read-out: MIC) of 0.25 µg/mL (≈ 0.575 µM). It also gave an MIC [13] of 32 µg/mL (≈ 73.6 µM), an MIC [15] of 8 µg/mL (≈ 18.4 µM) and an MIC [17] greater than 128 µg/mL. The MIC [18] was 64 µg/mL (≈ 147 µM), the MIC [19] was greater than 128 µg/mL and the MIC [20] was 32 µg/mL (≈ 73.6 µM). The MIC [21] was greater than 128 µg/mL, the MIC [22] was greater than 128 µg/mL and the MIC [33] was greater than 128 µg/mL. The MIC [23] was greater than 128 µg/mL, the MIC [24] was greater than 80 µg/mL and the MIC [25] was 5 µg/mL (≈ 11.5 µM). The MIC [26] was greater than 80 µg/mL, the MIC [27] was 20 µg/mL (≈ 46 µM) and the MIC [29] was 40 µg/mL (≈ 92.1 µM). For the same compound, the MIC [30] was greater than 80 µg/mL and the MIC [31, 36] was 0.5 µg/mL (≈ 1.15 µM).
